Values after ≈ are worked out from the molar mass of the structure shown. Where two headings read alike, the source gives them in different places.

This series is described as follows: Water solubility. Format: physicochemical. To be noted: for solubility: water, read-out: Wasserlöslichkeit.
[1] abbreviates: result in words, no temperature stated.

Regarding `CN(C[C@H](O)[C@H](O)CO)C(=O)COc1c(I)c(C(=O)NCC(O)CO)c(I)c(C(=O)NCC(O)CO)c1I` (stereo partly shown) [Beispiel 35, 5-(N-Methyl-N-2,3,4-trihydroxybutyl)aminocarbonylmethoxy-2,4,6-trijod-isophthalsäure-bis(2,3-dihydroxypropylamid)], for the setting “bei 25 °C”, the solubility was more than 1000 mg/mL.

Take `C[C@@H](Oc1c(I)c(C(=O)NC(CO)CO)c(I)c(C(=O)NC(CO)CO)c1I)C(=O)N(C)C[C@H](O)[C@@H](O)[C@@H](O)CO` [Beispiel 26, R-5(1((N-Methyl-N-2,3,4,5-tetrahydroxypentyl)aminocarbonyl)ethoxy)-2,4,6-trijodisophthalsäure-bis(1,3-dihydroxyisopropylamid)]: the solubility (bei 25 °C) was more than 1000 mg/mL.

`CN(C[C@H](O)[C@@H](O)[C@H](O)[C@H](O)CO)C(=O)COc1c(I)c(C(=O)NCC(O)CO)c(I)c(C(=O)NCC(O)CO)c1I` (stereo partly shown) [Beispiel 37, 5-(N-Methyl-N-2,3,4,5,6-pentahydroxyhexyl)aminocarbonylmethoxy-2,4,6-trijodisophthalsäure-bis(2,3-dihydroxypropylamid)]: the solubility (bei 20 °C) is more than 1000 mg/mL.

Consider `CN(C[C@H](O)[C@@H](O)[C@H](O)[C@H](O)CO)C(=O)COc1c(Br)c(C(=O)NCC(O)CO)c(Br)c(C(=O)NCC(O)CO)c1Br` (stereo partly shown) [Beispiel 38, 5-(N-Methyl-N-2,3,4,5,6-pentahydroxyhexyl)aminocarbonylmethoxy-2,4,6-tribromisophthalsäure-bis(2,3-dihydroxypropylamid)], for which the solubility (bei 20 °C) was more than 1000 mg/mL.

Turning to `O=C(NC(CO)CO)c1c(I)c(OC(CO)CO)c(I)c(C(=O)NC(CO)CO)c1I` [Beispiel 9, 5-(1,3-Dihydroxyisopropyl)oxy-2,4,6-trijodisophthalsäure-bis(1,3-di-hydroxyisopropylamid)], the Wasserlöslichkeit result under setting [1] is “in Wasser leicht löslich”.

In the case of `CC(Oc1c(I)c(C(=O)NC(CO)CO)c(I)c(C(=O)NC(CO)CO)c1I)C(=O)N(CCO)CCO` (racemic) [Beispiel 18], the solubility (bei 25 °C) is more than 1000 mg/mL.

For `COC(=O)[C@@H](C)Oc1c(Br)c(C(=O)NC(CO)CO)c(Br)c(C(=O)NC(CO)CO)c1Br` [R(+)-5(1(Methoxycarbonyl)ethoxy)-2,4,6-tribromisophthalsäure-bis(1,3-di-hydroxyisopropylamid)], under setting [1], the Wasserlöslichkeit result is “sehr gut wasserlösliche”.

On to `O=C(NC(CO)CO)c1c(I)c(OCC(O)CO)c(I)c(C(=O)NC(CO)CO)c1I` (stereo not shown) [Beispiel 8, 5-(2,3-Dihydroxypropyl)oxy-2,4,6-trijodisophthalsäure-bis(1,3-dihydroxy-isopropylamid)], for which the Wasserlöslichkeit result under setting [1] is “löslich in Wasser”.

On to `C[C@@H](Oc1c(I)c(C(=O)NC(CO)CO)c(I)c(C(=O)NC(CO)CO)c1I)C(=O)N(C)CC(O)CO` (stereo partly shown) [Beispiel 20 R], for which the solubility (bei 20 °C) is more than 1000 mg/mL.

With `CC(CO)(CO)NC(=O)COc1c(I)c(C(=O)NC(CO)CO)c(I)c(C(=O)NC(CO)CO)c1I` [Beispiel 15, 5-(1,3-Dihydroxy-2-methylisopropylaminocarbonyl)methoxy-2,4,6-trijodiso-phthalsäure-bis(1,3-dihydroxyisopropylamid)], the solubility is 16 mg/mL (≈ 18.8 mM) (bei 20 °C) and 1000 mg/mL (≈ 1170 mM) (bei Siedetemperatur).

For `C[C@@H](Oc1c(I)c(C(=O)NC(CO)CO)c(I)c(C(=O)NC(CO)CO)c1I)C(=O)N(CCO)CC(O)CO` (stereo partly shown) [Beispiel 24, R-5(1((N-2-Hydroxyethyl-N-2,3-dihydroxypropyl)aminocarbonyl)ethoxy)-2,4,6-trijodisophthalsäure-bis(1,3-dihydroxyisopropylamid)], the solubility (no temperature stated) was more than 1000 mg/mL.

In the case of `C[C@@H](Oc1c(I)c(C(=O)NC(CO)CO)c(I)c(C(=O)NC(CO)CO)c1I)C(=O)NC(CO)CO` [Beispiel 14, R(-)-5-(1(1,3-Dihydroxyisopropylaminocarbonyl)ethoxy)-2,4,6-trijodiso-phthalsäure-bis(1,3-dihydroxyisopropylamid)], the Wasserlöslichkeit entry under setting [1] is reported as “gering”.

Regarding `CN(C[C@@H](O)[C@H](O)[C@H](O)CO)C(=O)COc1c(I)c(C(=O)NC(CO)CO)c(I)c(C(=O)NC(CO)CO)c1I` [Beispiel 25, 5-(N-Methyl-N-2,3,4,5-tetrahydroxypentyl)aminocarbonylmethoxy-2,4,6-trijodisophthalsäure-bis(1,3-dihydroxyisopropylamid)], the solubility (no temperature stated) is more than 1000 mg/mL.

Take `O=C(NC(CO)CO)c1c(I)c(OCCCOCCOCCOCCOCCCO)c(I)c(C(=O)NC(CO)CO)c1I` [Beispiel 6, 5-(16-Hydroxy-4,7,10,13-tetraoxahexadecyl)oxy-2,4,6-trijod-isophthalsäure-bis(1,3-dihydroxyisopropylamid)]: the solubility (bei 20 °C) is more than 1000 mg/mL.

Take `CNC(=O)COc1c(I)c(C(=O)NCC(O)CO)c(I)c(C(=O)NCC(O)CO)c1I` (stereo not shown) [Beispiel 30, 5-Methylaminocarbonylmethoxy-2,4,6-trijodisophthalsäure-bis(2,3-di-hydroxypropylamid)]: the solubility (bei Siedetemperatur) worked out at 20 mg/mL (≈ 25.7 mM).

On to `CC(Oc1c(I)c(C(=O)NC(CO)CO)c(I)c(C(=O)NC(CO)CO)c1I)C(=O)N(C)CC(O)CO` (stereo not shown) [Beispiel 20 R,S], for which the solubility (bei 20 °C) was more than 1000 mg/mL.

On to “R(+)-5-(1(1,3-Dihydroxyisopropylaminocarbonyl)ethoxy)-2,4,6-tribromiso- phthalsäure-bis(1,3-dihydroxyisopropylamid) [Beispiel 13]”, for which the Wasserlöslichkeit by setting is: (bei 20 °C) 5 % (g/v); (bei 100 °C) 100 % (g/v).

In the case of `O=C(COc1c(I)c(C(=O)NC(CO)CO)c(I)c(C(=O)NC(CO)CO)c1I)NCCNC(=O)COc1c(I)c(C(=O)NC(CO)CO)c(I)c(C(=O)NC(CO)CO)c1I` [Beispiel 46, 1,2-Bis-(3,5-bis(1,3-dihydroxyisopropylaminocarbonyl)-2,4,6-trijod-phenoxy-acetylamino)-ethan], the Wasserlöslichkeit result under setting [1] was “kaum löslich in Wasser”.

In the case of `CC(CO)(CO)NC(=O)COc1c(I)c(C(=O)NCC(O)CO)c(I)c(C(=O)NCC(O)CO)c1I` (stereo not shown) [Beispiel 33, 5-(1,3-Dihydroxy-2-methylisopropylaminocarbonylmethoxy)-2,4,6-trijod-isophthalsäure-bis(2,3-dihydroxypropylamid)], the solubility (bei 25 °C) is more than 1000 mg/mL.

Take `O=C(NCC(O)CO)c1c(I)c(OCCOCCOCCOc2c(I)c(C(=O)NCC(O)CO)c(I)c(C(=O)NCC(O)CO)c2I)c(I)c(C(=O)NCC(O)CO)c1I` (stereo not shown) [Beispiel 44, 1,8-Bis-(3,5-bis(2,3-dihydroxypropylaminocarbonyl)-2,4,6-trijod-phenoxy)-3,6-dioxan]: the Wasserlöslichkeit result under setting [1] is given as “Wenig löslich in Wasser”.

In the case of `O=C(COc1c(Br)c(C(=O)NC(CO)CO)c(Br)c(C(=O)NC(CO)CO)c1Br)NC(CO)CO` [Beispiel 12, 5-(1,3-Dihydroxyisopropylaminocarbonyl)methoxy-2,4,6-tribromisophthal-säure-bis(1,3-dihydroxyisopropylamid)], the solubility (bei 20 °C) is more than 1000 mg/mL.

Take `CN(C[C@H](O)[C@@H](O)[C@H](O)[C@H](O)CO)C(=O)COc1c(I)c(C(=O)NC(CO)CO)c(I)c(C(=O)NC(CO)CO)c1I` [Beispiel 27, 5-(N-Methyl-N-2,3,4,5,6-pentahydroxyhexyl)aminocarbonylmethoxy-2,4,6-trijodisophthalsäure-bis(1,3-dihydroxyisopropylamid)]: the solubility (bei 20 °C) worked out at 1000 mg/mL (≈ 1060 mM).

As for `CN(C[C@H](O)[C@@H](O)[C@@H](O)CO)C(=O)COc1c(I)c(C(=O)NCC(O)CO)c(I)c(C(=O)NCC(O)CO)c1I` (stereo partly shown) [Beispiel 36, 5-(N-Methyl-N-2,3,4,5-tetrahydroxypentyl)aminocarbonylmethoxy-2,4,6-trijodisophthalsäure-bis(2,3-dihydroxypropylamid)], the solubility (bei 25 °C) is more than 1000 mg/mL.

Consider `O=C(COc1c(I)c(C(=O)NCC(O)CO)c(I)c(C(=O)NCC(O)CO)c1I)NCC(O)CO` (stereo not shown) [Beispiel 32, 5-(2,3-Dihydroxypropylaminocarbonylmethoxy)-2,4,6-trijodisophthalsäure-bis(2,3-dihydroxypropylamid)], for which the solubility came to 10 mg/mL (≈ 11.9 mM) (bei 20 °C) and 100 mg/mL (≈ 119 mM) (bei Siedetemperatur).

For the compound `O=C(COc1c(I)c(C(=O)NCC(O)CO)c(I)c(C(=O)NCC(O)CO)c1I)NC(CO)CO` (stereo not shown) [Beispiel 48, 5-(1,3-Dihydroxyisopropylaminocarbonyl)methoxy-2,4,6-trijodisophthal-säure-bis(2,3-dihydroxypropylamid)], the Wasserlöslichkeit result under setting [1] is “leicht löslich in Wasser”.

Consider `O=C(NC(CO)CO)c1c(I)c(OCC(CO)(CO)CO)c(I)c(C(=O)NC(CO)CO)c1I` [Beispiel 10, 5-(2,2-Bis-(hydroxymethyl)-3-hydroxypropyl)oxy-2,4,6-trijodisophthal-säure-bis(1,3-dihydroxyisopropylamid)], for which the Wasserlöslichkeit entry under setting [1] was “spielend leicht wasserlöslich”.

For the compound `O=C(NC(CO)CO)c1c(I)c(OCC(=O)N(CCO)CC(O)CO)c(I)c(C(=O)NC(CO)CO)c1I` (stereo not shown) [Beispiel 23, 5-(N-2-Hydroxyethyl-N-2,3-dihydroxypropyl)aminocarbonylmethoxy-2,4,6-trijodisophthalsäure-bis(1,3-dihydroxyisopropylamid)], the solubility (no temperature stated) is more than 1000 mg/mL.

Turning to `CNC(=O)COc1c(I)c(C(=O)NC(CO)CO)c(I)c(C(=O)NC(CO)CO)c1I` [Beispiel 11, 5-Methylaminocarbonylmethoxy-2,4,6-trijod-isophthalsäure-bis(1,3-di-hydroxyisopropylamid)], under “bei Siedetemperatur”, the solubility amounted to 100 mg/mL (≈ 129 mM).

In the case of `CN(CC(O)CO)C(=O)COc1c(I)c(C(=O)NC(C)(CO)CO)c(I)c(C(=O)NC(C)(CO)CO)c1I` (stereo not shown) [Beispiel 39, 5(N-Methyl-N-2,3-dihydroxypropyl)aminocarbonylmethoxy-2,4,6-trijod-isophthalsäure-bis(1,3-dihydroxy-2-methylisopropylamid)], the solubility (bei 20 °C) is not below 1000 mg/mL.

On to `CCOCCOCCOc1c(I)c(C(=O)N(CCO)CC(O)CO)c(I)c(C(=O)N(CCO)CC(O)CO)c1I` (stereo not shown) [Beispiel 41, 5-(3,6-Dioxaoctyl)oxy-2,4,6-trijodisophthalsäure-bis(N-2-hydroxyethyl-N-2,3-dihydroxypropylamid)], for which, where the note is “bei Raumtemperatur”, the solubility was more than 1000 mg/mL.

Regarding `COC(=O)[C@@H](C)Oc1c(I)c(C(=O)NC(CO)CO)c(I)c(C(=O)NC(CO)CO)c1I` [R(+)-5(1(Methoxycarbonyl)ethoxy-IPSA], where the note is “bei 25 °C”, the solubility was approximately 800 mg/mL (≈ 1010 mM).

The values are drawn from EP0185130A1, “5-Alkoxy-2,4,6-triodo or tribromo-isophthalic-acid derivatives, process for their preparation and X-ray contrast agents containing them” (BRACCO INDUSTRIA CHIMICA Società per Azioni, priority 1984, dated 1986).
